Source: PubChem BioAssay AID2060905 (Molecular Pharmacology Branch, DTP, NCI, 2025)

Tested on: 282377-053-R-J1-PDC complex spheroid viability
Experiment: Anticancer human tumor 282377-053-R-J1-PDC patient-derived colon adenocarcinoma cell line growth inhibition [RAS]
Conditions: for IC50: curve of first compound; for viability, T/C: stronger effect = lower value; active = viability on the fitted dose curve at most 10% of control; inactive = the rest
In short: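 Agents were tested in combination matrices in half-log decrements from a top concentration at or near clinical Cmax (10 microM if undetermined). Targets were multi-cell spheroids of tumour lines plus HUVEC and MSC stromal cells.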
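Note: spheroids exposed to agents for seven days before readout.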
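Throughout, for viability, T/C: luminescence viability as percent of DMSO vehicle control wells.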

C=CC(=O)N1CCN(c2nc(OCC3CCCN3C)nc3c(F)c(-c4nc(N)cc(C)c4C(F)(F)F)c(Cl)cc23)C(C)C1 (centres undefined) + CCn1c(-c2cc(N3CCN(C)CC3)cnc2C(C)OC)c2c3cc(ccc31)-c1csc(n1)CC(NC(=O)C1CC1C)C(=O)N1CCCC(N1)C(=O)OCC(C)(C)C2
inactive: viability, T/C (second compound 0.000949 µM, first compound 0.00316 µM) 110% | viability, T/C (second compound 0.000949 µM, first compound 0.01 µM) 101% | viability, T/C (second compound 0.000949 µM, first compound 0.0316 µM) 112% | viability, T/C (second compound 0.000949 µM, first compound 0.1 µM) 102% | viability, T/C (second compound 0.000949 µM, first compound 0.316 µM) 129% | viability, T/C (second compound 0.000949 µM, first compound 1 µM) 107% | viability, T/C (second compound 0.003 µM, first compound 0.00316 µM) 108% | viability, T/C (second compound 0.003 µM, first compound 0.01 µM) 120% | viability, T/C (second compound 0.003 µM, first compound 0.0316 µM) 98.4% | viability, T/C (second compound 0.003 µM, first compound 0.1 µM) 115% | viability, T/C (second compound 0.003 µM, first compound 0.316 µM) 73.2% | viability, T/C (second compound 0.003 µM, first compound 1 µM) 143% | viability, T/C (second compound 0.00949 µM, first compound 0.00316 µM) 134% | viability, T/C (second compound 0.00949 µM, first compound 0.01 µM) 97.6% | viability, T/C (second compound 0.00949 µM, first compound 0.0316 µM) 115% | viability, T/C (second compound 0.00949 µM, first compound 0.1 µM) 89.5% | viability, T/C (second compound 0.00949 µM, first compound 0.316 µM) 108% | viability, T/C (second compound 0.00949 µM, first compound 1 µM) 110% | viability, T/C (second compound 0.03 µM, first compound 0.00316 µM) 120% | viability, T/C (second compound 0.03 µM, first compound 0.01 µM) 85.6% | viability, T/C (second compound 0.03 µM, first compound 0.0316 µM) 88.1% | viability, T/C (second compound 0.03 µM, first compound 0.1 µM) 96.6% | viability, T/C (second compound 0.03 µM, first compound 0.316 µM) 93.6% | viability, T/C (second compound 0.03 µM, first compound 1 µM) 107% | viability, T/C (second compound 0.0949 µM, first compound 0.00316 µM) 124% | viability, T/C (second compound 0.0949 µM, first compound 0.01 µM) 113% | viability, T/C (second compound 0.0949 µM, first compound 0.0316 µM) 106% | viability, T/C (second compound 0.0949 µM, first compound 0.1 µM) 119% | viability, T/C (second compound 0.0949 µM, first compound 0.316 µM) 91.8% | viability, T/C (second compound 0.0949 µM, first compound 1 µM) 133% | viability, T/C (second compound 0.3 µM, first compound 0.00316 µM) 113% | viability, T/C (second compound 0.3 µM, first compound 0.01 µM) 93.7% | viability, T/C (second compound 0.3 µM, first compound 0.0316 µM) 134% | viability, T/C (second compound 0.3 µM, first compound 0.1 µM) 120% | viability, T/C (second compound 0.3 µM, first compound 0.316 µM) 104% | viability, T/C (second compound 0.3 µM, first compound 1 µM) 121%
> 1 µM: IC50 (second compound 0.000949 µM) | IC50 (second compound 0.003 µM) | IC50 (second compound 0.00949 µM) | IC50 (second compound 0.03 µM) | IC50 (second compound 0.0949 µM) | IC50 (second compound 0.3 µM)

CC(Nc1ccc2c(c1)OCCn1cc(N3C(=O)OCC3C(F)F)nc1-2)C(N)=O (centres undefined) + C#Cc1c(F)ccc2cc(O)cc(-c3ncc4c(N5CC6CCC(C5)N6)nc(OCC56CCCN5CC(F)C6)nc4c3F)c12
inactive: viability, T/C (second compound 0.0316 µM, first compound 0.0316 µM) 109% | viability, T/C (second compound 0.0316 µM, first compound 0.1 µM) 84.6% | viability, T/C (second compound 0.0316 µM, first compound 0.316 µM) 88.8% | viability, T/C (second compound 0.0316 µM, first compound 1 µM) 96% | viability, T/C (second compound 0.0316 µM, first compound 3.16 µM) 90.2% | viability, T/C (second compound 0.0316 µM, first compound 10 µM) 72.8% | viability, T/C (second compound 0.1 µM, first compound 0.0316 µM) 101% | viability, T/C (second compound 0.1 µM, first compound 0.1 µM) 85.7% | viability, T/C (second compound 0.1 µM, first compound 0.316 µM) 93.1% | viability, T/C (second compound 0.1 µM, first compound 1 µM) 97.3% | viability, T/C (second compound 0.1 µM, first compound 3.16 µM) 91.1% | viability, T/C (second compound 0.1 µM, first compound 10 µM) 72.6% | viability, T/C (second compound 0.316 µM, first compound 0.0316 µM) 131% | viability, T/C (second compound 0.316 µM, first compound 0.1 µM) 92.7% | viability, T/C (second compound 0.316 µM, first compound 0.316 µM) 78.2% | viability, T/C (second compound 0.316 µM, first compound 1 µM) 104% | viability, T/C (second compound 0.316 µM, first compound 3.16 µM) 74.7% | viability, T/C (second compound 0.316 µM, first compound 10 µM) 96.1% | viability, T/C (second compound 1 µM, first compound 0.0316 µM) 95.7% | viability, T/C (second compound 1 µM, first compound 0.1 µM) 97.8% | viability, T/C (second compound 1 µM, first compound 0.316 µM) 98.7% | viability, T/C (second compound 1 µM, first compound 1 µM) 100% | viability, T/C (second compound 1 µM, first compound 3.16 µM) 88.5% | viability, T/C (second compound 1 µM, first compound 10 µM) 93.3% | viability, T/C (second compound 3.16 µM, first compound 0.0316 µM) 90.5% | viability, T/C (second compound 3.16 µM, first compound 0.1 µM) 88.8% | viability, T/C (second compound 3.16 µM, first compound 0.316 µM) 88.3% | viability, T/C (second compound 3.16 µM, first compound 1 µM) 77.5% | viability, T/C (second compound 3.16 µM, first compound 3.16 µM) 76.6% | viability, T/C (second compound 3.16 µM, first compound 10 µM) 76.9% | viability, T/C (second compound 10 µM, first compound 0.0316 µM) 102% | viability, T/C (second compound 10 µM, first compound 0.1 µM) 101% | viability, T/C (second compound 10 µM, first compound 0.316 µM) 97% | viability, T/C (second compound 10 µM, first compound 1 µM) 81.2% | viability, T/C (second compound 10 µM, first compound 3.16 µM) 90% | viability, T/C (second compound 10 µM, first compound 10 µM) 78.5%
> 10 µM: IC50 (second compound 0.0316 µM) | IC50 (second compound 0.1 µM) | IC50 (second compound 0.316 µM) | IC50 (second compound 1 µM) | IC50 (second compound 3.16 µM) | IC50 (second compound 10 µM)
